Read-outs that look alike come from different tables or passages of the source. Values belong to the compound of their own block, whether it stands above or below them.
How the values were obtained:
[1] = biological target: T1, recombinant ROCK2 (amino acids 1-552) (Homo sapiens, UniProt O75116); assay: Z'-lyte kinase assay, ROCK2; format: biochemical
T1 construct: ROCK2 (amino acids 1-552) proteins were purchased from ThermoFisher Scientific; purchased ThermoFisher Scientific
Method: (§1) Determination of compounds ROCK inhibitory activity in vitro (Z'lyte assay): recombinant ROCK1 (amino acids 1-535) and ROCK2 (amino acids 1-552) proteins were purchased from ThermoFisher Scientific. Compounds activities were measured by Z′-lyte kinase kit (ThermoFisher Scientific) and IC50s were calculated.
(§2) Table 2, below, provides in vitro and cellular inhibition of ROCKs by compounds of the invention. Compounds activities were measured by Z′-lyte kinase kit (ThermoFisher Scientific). […] IC50s were calculated using the GraphPad Prism software with kinase activities data that were collected from points 9 serial dilution of compounds treatment. The ROCK inhibition in A7R5 cells and NIH3T3 (Acta2-Luc) cells was performed as described above.

[2] = biological target: T2, recombinant ROCK1 (amino acids 1-535) (Homo sapiens, UniProt Q13464); assay: Z'-lyte kinase assay, ROCK1; format: biochemical
T2 construct: recombinant ROCK1 (amino acids 1-535) and ROCK2; purchased ThermoFisher Scientific
Method: as §1, §2

[3] = test system: phospho-myosin light chains (ppMlc, Thr18/Ser19) in A7R5 cells; assay: A7R5 in-cell ELISA, phospho-myosin light chain; format: cell-based, rat; conditions: Rattus norvegicus
Method: Determination of compounds ROCK inhibitory activity in A7R5 cells: rat aortic smooth muscle cell line A7R5 cells were maintained and treated in DMEM medium with 10% of fetal bovine serum. Cells were seeded with density of 5,000 cells/well in 96-well plates for 24 hours and subsequently treated 90 min with testing compounds. Cells were then fixed and processed according to the In-Cell ELISA Colorimetric Detection Kit manual (Thermo Scientific). Cellular phospho-myosin light chains (ppMlc, Thr18/Ser19) levels were determined after treatments of DMSO control or test compounds using the In-Cell ELISA kit. The percent inhibition rate was calculated by applying the data obtained with 1 μM (or 10 μM) compound treatment to the formula, [1-(compound/DMSO)]×100%. ppMlc data obtained with 9 points 2-fold serial dilution of compounds were applied to the nonlinear regression curve fit function of the GraphPad Prism software to calculate the In cell IC50s.
A7R5 cells were treated with 9 points 2 fold serial dilution of compounds and ppMlc (T18/S19) levels were determined in order to calculate cellular IC50s of the compounds.
Two steps of measurements were adopted for pMLC/A7R5 IC50. Percent inhibition rates were calculated with a single dose (1 μM or 10 μM) compounds treatment to screen for active compounds and then cellular IC50s were measured only in compounds that have over 50% of inhibition rates.

[4] = test system: luciferase reporter driven by the human ACTA2 gene promoter in NIH3T3 cells; assay: NIH3T3 cells Acta2-promoter driven-luciferase assay; format: cell-based; conditions: plus TGF 1, 24 hr, read-out: NIH3T3, Acta2-luc, IC50
Method: NIH3T3 cells Acta2-promoter driven-luciferase assay: A NIH3T3 cell line stably expressing a luciferase reporter driven by the human ACTA2 gene promoter (−1000-1 bp) was established (NIH3T3-Acta2-luciferase). The cells were plated to confluence and treated with the test compounds plus TGF 1 for 24 hr. Cells were then lysed and luciferase activity was measured using the LightSwitch luciferase kit from Active Motif.

[5] = test system: ROCK target MYPT1 phosphorylation in HCT116 ROCK1KO and ROCK2KO cells; assay: pMypt (T853) western blotting in HCT116 ROCK1KO and ROCK2KO cells; format: cell-based; conditions: 110 nM, 90 min
Method: FIG. 2. […] HCT116 cells with either a ROCK1 or ROCK2 knockout (ROCK1KO and ROCK2KO, respectively) were treated with the inhibitor for 90 min and pMypt (T853) levels were visualized by western blotting.
A CRISPR/CAS9 system was used to create HCT116 cells containing a knock out for either ROCK1 or ROCK2. The ROCK1KO and ROCK2KO cells were treated with the Example 2 compound for 90 min and pMypt (T853) levels were visualized by western blotting.

[6] = test system: Human oligodendrocyte/neuron progenitor cells; assay: Human oligodendrocyte/neuron progenitor cell differentiation (Nestin/MAP2 staining); format: cell-based; conditions: cultured 2 & 14 days with or without inhibitor
Method: FIG. 3. Human oligodendrocyte/neuron progenitor cells were cultured in vitro with or without ROCK inhibitor (Example 2 compound) for 2 & 14 days. Nestin and MAP2 proteins were visualized by staining with commercial antibodies to identify different stages of neuronal cell differentiation.
Human oligodendrocyte/neuron progenitor cells were cultured in vitro with or without ROCK inhibitor for 2 & 14 days. Nestin and MAP2 proteins were visualized by staining with commercial antibodies to identify different stages of neuronal cell differentiation.

[7] = test system: rat oligodendrocytes with rat dorsal root ganglia (DRG) explants; assay: Rat oligodendrocytes with rat dorsal root ganglia (DRG) explants co-culture; format: cell-based
Excerpt: At the same time, the ROCK inhibitor also facilitated axonal support of oligodentrocye by organized manner, which was visualized by staining the mature oligodendrocyte marker MBP.

[8] = Mouse pharmacokinetic study, plasma and brain distribution 2 hours after dosing; format: in vivo; conditions: for concentration at 2 h / Kp at 2 h: 2 hours post-dose; for Kp at 2 h: brain/plasma, read-out: Brain/Plasma Ratio
Method: In a mouse pharmacokinetic study, 2 hours after dosing, animal tissues were harvested to determine the compound distribution.

[9] = Brain and plasma concentrations in mouse by HPLC/MS/MS after 2.5 mg/kg IV; format: in vivo; conditions: for concentration at 0.25 h / concentration at 2 h: iv; for Kp at 0.25 h / Kp at 2 h: brain/plasma; for Kp at 0.25 h: read-out: Mean Brain/Plasma Ratio at 0.25 hr; for Kp at 2 h: read-out: Mean Brain/Plasma Ratio at 2 hr
Method: Brain and plasma concentrations of select ROCK inhibitors were also evaluated in mouse by HPLC/MS/MS at 15 min and 2 hrs following 2.5 mg/kg IV drug administration.

[10] = cited from earlier work
[11] = test system: sAPPP; conditions: direct i.p. injection into hippocampus, rodent model of AD; cited from earlier work
[12] = 1.5 h, A7R5 cells, 90 min, read-out: pMLC IC50 A7R5
[13] = A7R5 cells, ppMlc (T18/S19), 9 points 2 fold serial dilution, read-out: ppMIc IC50
[14] = brain, 2.5 mg/kg, read-out: Mean Conc. at 0.25 hr, Brain
[15] = plasma, 2.5 mg/kg, read-out: Mean Conc. at 0.25 hr, Plasma
[16] = plasma, 2.5 mg/kg, read-out: Mean Conc. at 2 hr, Plasma

T1 sequence (O75116 1-552): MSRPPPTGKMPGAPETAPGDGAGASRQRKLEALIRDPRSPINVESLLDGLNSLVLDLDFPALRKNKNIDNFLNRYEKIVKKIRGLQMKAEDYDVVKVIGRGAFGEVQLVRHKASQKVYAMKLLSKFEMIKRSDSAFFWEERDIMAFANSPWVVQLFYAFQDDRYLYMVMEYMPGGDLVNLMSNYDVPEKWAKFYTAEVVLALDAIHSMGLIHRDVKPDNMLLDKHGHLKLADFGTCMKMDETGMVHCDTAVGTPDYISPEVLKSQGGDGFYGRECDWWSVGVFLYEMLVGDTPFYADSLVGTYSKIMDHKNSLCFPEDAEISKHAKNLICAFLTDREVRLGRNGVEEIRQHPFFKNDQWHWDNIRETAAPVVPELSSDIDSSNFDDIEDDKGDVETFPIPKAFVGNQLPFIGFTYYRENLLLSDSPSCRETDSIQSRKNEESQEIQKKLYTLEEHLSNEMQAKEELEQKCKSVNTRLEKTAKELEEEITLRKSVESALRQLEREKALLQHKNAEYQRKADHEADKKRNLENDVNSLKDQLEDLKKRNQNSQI
T2 sequence (Q13464 1-535): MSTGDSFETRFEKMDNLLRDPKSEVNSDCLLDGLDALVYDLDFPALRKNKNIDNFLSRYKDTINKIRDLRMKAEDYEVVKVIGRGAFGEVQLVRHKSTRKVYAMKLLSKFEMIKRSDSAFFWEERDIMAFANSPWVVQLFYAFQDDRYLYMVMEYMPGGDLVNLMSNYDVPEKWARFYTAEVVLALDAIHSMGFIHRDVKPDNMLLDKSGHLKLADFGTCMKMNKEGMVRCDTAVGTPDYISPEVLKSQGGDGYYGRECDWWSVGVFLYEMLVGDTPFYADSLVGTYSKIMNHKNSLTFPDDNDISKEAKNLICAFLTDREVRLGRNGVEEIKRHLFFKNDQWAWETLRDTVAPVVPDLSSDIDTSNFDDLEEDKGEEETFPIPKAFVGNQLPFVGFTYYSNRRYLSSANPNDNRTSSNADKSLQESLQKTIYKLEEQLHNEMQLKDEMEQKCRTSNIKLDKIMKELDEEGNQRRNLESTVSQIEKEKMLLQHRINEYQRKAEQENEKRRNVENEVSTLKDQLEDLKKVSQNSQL

Structure (SMILES): CNC(C(=O)Nc1ccc2[nH]ncc2c1)c1ccccc1 (centres unmarked) [Example 2, N-(1H-indazol-5-yl)-2-(methylamino)-2-phenylacetamide]
IC50 [1]: 21 nM
inhibition at 3 µM ([1]; 3 μM, read-out: ROCK2 % inh): 98.7%
IC50 [2]: 25 nM
inhibition at 3 µM ([2]; 3 μM, read-out: ROCK1 % inh): 98.8%
IC50 [3, 12]: 304 nM
IC50 [3, 13]: 304 nM
IC50 ([3]; pMLC in A7R5 cells, read-out: cellular ROCK inhibition IC50): 252 nM
IC50 [4]: 885 nM
pMypt (T853) levels, MYPT1 phosphorylation [5]: efficiently blocked
mature neuronal cell marker MAP2 expression [6]: significantly facilitated
neurite outgrowth [6]: improved
axonal support of oligodendrocyte (MBP / neurofilament staining) [7]: facilitated
cytoskeletal organization / myelin segments (neurofilament staining) [7]: producing many shorter ordered myelin segments
BBB penetrant property ([8]; 2 hours after dosing): excellent
concentration at 2 h ([8]; brain, IV 10 mg base/kg, read-out: Brain Concentration): 699 ng/g
concentration at 2 h ([8]; brain, PO 10 mg base/kg, read-out: Brain Concentration): 700 ng/g
concentration at 2 h ([8]; brain, PO 30 mg base/kg, read-out: Brain Concentration): 2860 ng/g
concentration at 2 h ([8]; brain, PO 100 mg base/kg, read-out: Brain Concentration): 19400 ng/g
Kp at 2 h ([8]; IV 10 mg base/kg): 3.31
Kp at 2 h ([8]; PO 10 mg base/kg): 1.73
Kp at 2 h ([8]; PO 30 mg base/kg): 2.04
Kp at 2 h ([8]; PO 100 mg base/kg): 2.08
concentration at 2 h ([8]; plasma, IV 10 mg base/kg, read-out: Plasma Concentration): 211 ng/mL
concentration at 2 h ([8]; plasma, PO 10 mg base/kg, read-out: Plasma Concentration): 405 ng/mL
concentration at 2 h ([8]; plasma, PO 30 mg base/kg, read-out: Plasma Concentration): 1400 ng/mL
concentration at 2 h ([8]; plasma, PO 100 mg base/kg, read-out: Plasma Concentration): 9290 ng/mL

Structure (SMILES): CNC(C(=O)Nc1ccc2[nH]ncc2c1)c1ccccc1Cl (centres unmarked) [Example 47, 2-(2-chlorophenyl)-N-(1H-indazol-5-yl)-2-(methylamino)acetamide]
IC50 [1]: 135 nM
IC50 [2]: 8.3 nM
IC50 [3, 12]: 461 nM
IC50 [3, 13]: 461 nM
IC50 [4]: 659 nM

Structure (SMILES): CCNC(C(=O)Nc1ccc2[nH]ncc2c1)c1cccc(Cl)c1 (centres unmarked) [Example 58, 2-(3-chlorophenyl)-2-(ethylamino)-N-(1H-indazol-5-yl)acetamide]
IC50 [1]: 64 nM
inhibition at 0.5 µM ([1]; @ 0.5 μM, read-out: ROCK2 % inh): 61%
inhibition at 0.5 µM ([2]; @ 0.5 μM, read-out: ROCK1 % inh): 85%
IC50 [3, 12]: 722 nM
IC50 [4]: 1090 nM

Structure (SMILES): CN(C)CCOc1cc(-c2cn[nH]c2)ccc1NC(=O)C1COc2ccccc2O1 (centres unmarked) [SR3677]
brain penetration ([10]; in vivo): lack of brain penetration
half-life ([10]; oral PK properties): < 1 h
F (oral) ([10]; oral): 5%
effect on sAPPP [11]: lowering sAPPP

More lines, main results first:

IC50 [1]: 10 nM
IC50 [2]: 13 nM
IC50 [3, 12]: 124 nM
IC50 [3, 13]: 124 nM
concentration at 0.25 h [9, 14]: 853 ng/g
concentration at 2 h ([9]; brain, 2.5 mg/kg, read-out: Mean Conc. at 2 hr, Brain): 288 ng/g
Kp at 0.25 h [9]: 2.17
Kp at 2 h [9]: 6.99
concentration at 0.25 h [9, 15]: 394 ng/mL
concentration at 2 h [9, 16]: 41.4 ng/mL
Structure (SMILES): CNC(C(=O)Nc1ccc2[nH]ncc2c1)c1ccc(Oc2cccc(OC)c2)cc1 (centres unmarked) [Example 15, N-(1H-indazol-5-yl)-2-(4-(3-methoxyphenoxy)phenyl)-2-(methylamino)acetamide]
IC50 [4]: 219 nM

IC50 [1]: 17 nM
inhibition at 1 µM ([1]; @ 1 μM, read-out: ROCK2 % inh): 99.5%
IC50 [2]: 3.2 nM
IC50 [3, 12]: 304 nM
Mean Conc. at 0.25 hr, Brain ([9]; 2.5 mg/kg): 541 ng/g
concentration at 0.25 h [9, 14]: 566 ng/g
Kp at 0.25 h [9]: 1.33
Kp at 2 h [9]: 8.41
concentration at 0.25 h [9, 15]: 427 ng/mL
concentration at 2 h [9, 16]: 2.14 ng/mL
Structure (SMILES): CNC(C(=O)Nc1ccc2[nH]ncc2c1)c1cccc(OC)c1 (centres unmarked) [Example 41, N-(1H-indazol-5-yl)-2-(3-methoxyphenyl)-2-(methylamino)acetamide]
IC50 [4]: 539 nM

From patent US11926596B2, “Inhibitors of Rho associated coiled-coil containing protein kinase” (KADMON CORPORATION, LLC, priority 2017, dated 2024)
